Laboratory results: publication PMC11096368, “Transcriptomic signature, bioactivity and safety of a non-hepatotoxic analgesic generating AM404 in the midbrain PAG region” (Scientific Reports, 2024)
Entries after “also recorded” stand apart in the source; their conditions may differ. Read-outs that look alike come from different tables or passages of the source.

How the values were obtained:
Format in all cases: in vivo
liver of CD1 mice = assay: Hepatotoxicity at 600 mg/kg: nitrotyrosine, ZO-1 tight junctions, TUNEL, liver function tests; settings: 15 out of 20 ApAP treated animals; data not shown
[1] = LC–MS/MS identification of serum NAPQI; settings: 600 mg/kg, CD-1 mice
Description: […] (NAPQI) was extracted from the serum by adding 3 volumes of ethyl-acetate to 1 volume of serum and storing them on ice for 30 min, followed by centrifugation at 3000g for 30 min. Afterward, the supernatant was transferred into mass spectrometry vials and dried under N2 gas. The serum was then washed with another 3 volumes of ethyl-acetate, and the supernatant was added back to the same mass spectrometry vial, followed by evaporation under a stream of N2 gas. The sample was re-suspended with 50 µl of 1:1 MeOH:H2O for LC–MS/MS experimentation. The mass spectrophotometer was operated in multiple reaction monitoring (MRM) mode using positive ion electrospray. NAPQI was detected by monitoring the m/z transition 150.3 → 108.1. Pure NAPQI analytical standard (10 ng/mL) obtained from Cayman Chemical (Ann Arbor, MI) was used to characterize the full fragmentation pattern of NAPQI and determine the likely fragments.

Sprague–Dawley rats = assay: CFA inflammatory pain / von Frey with electronic detection (eVF); settings: for Threshold for paw withdrawal, CFA-injected paw: young male rats, 18 g after CFA; for Threshold for paw withdrawal, CFA-injected left hind paw: young female and aged male rats (Supplementary Fig. 3), from 25 g; for ED50: Rattus norvegicus, equimolar dosing
Description: (§1) The investigators were blinded till the completion of all the experiments. To ensure objectivity, investigators were blinded for the acetic acid and tail flick experiments. In the CFA/von Frey and Hargreaves assays, one investigator did the drug pre-treatments, and another investigator at another location who was not aware of the treatments conducted the behavioral testing. Moreover, these studies used the eVF device that electronically registers the grams of force necessary to elicit paw withdrawal, eliminating bias that confounded older versions of this test in which an investigator used a series of individual von Frey microfilaments to determine paw withdrawal thresholds. Six separate experimenters were involved in the data acquisition for behavioral testing, and another separate investigator performed all the statistical analyses using GraphPad Prism Version 9.1.2. Statistical significance was determined by p < 0.05; one-way ANOVA followed by Sidak’s multiple comparisons post hoc test. Mixed-gender experiments were powered to test for gender effects, and different ages of rodents were also included for the experiments – young (2 months) and aged (20 months) to tease out whether there are any effects of age-related changes in nociceptive sensitivity under naïve, and inflammatory pre-clinical rodent pain models. For the aged rats and mice, we could only obtain male Sprague–Dawley rats and male C57BL/6 mice of 20 months old from all commercial animal vendors and from the National Institute of Aging (NIA). So, only these rodents were used for the older animal experimental cohort. Old female rats and mice were not available at the time when these experiments were conducted. For ED50 calculation, dose–response curves were calculated with regression analysis and log transformation using GraphPad Prism 9.1.2.
In this model of mechanonociception, one hind paw at a time is stimulated with an electronic von Frey (eVF) filament (noxious source) until the animal retracts the paw from the mechanical stimulus. von Frey tests were conducted in a dedicated room at the LSUHSC New Orleans Neuroscience Center of Excellence vivarium. Rats were acclimated to their environment for 2 days for 30 min/day prior to testing. To obtain eVF pressure recordings, each animal was placed in an individual plastic observation compartment on a perforated metallic grid platform, which provided access to the plantar surface of the hind paws. After acclimation to the environment for 30 min, mechanical hypersensitivity was assessed by stimulating the mid-plantar area of each hind paw with a rigid tip von Frey filament attached to the eVF meter (Ugo Basile 38,450) until animals withdrew the paw from the filament. The withdrawal threshold was defined as the average force/pressure (g) required for the rat to withdraw the stimulated paw. A brisk withdrawal of the paw (often followed by a sustained retraction and/or licking) was considered a positive response, but paw withdrawals due to locomotion or weight shifting were not counted. The von Frey studies were conducted with an eVF device that electronically registers the grams of force necessary to elicit paw withdrawal in order to eliminate bias that confounded previous older versions of this test. Baseline withdrawal thresholds of both the right and left paws were recorded, and animals were assigned to different treatment groups so that each group had approximately equal withdrawal threshold averages in both paws. After baseline testing, treated animals received subcutaneous plantar injection (150 μl) of 50% CFA diluted and freshly mixed in sterile (0.9%) saline into the left hind paw unilaterally, while control animals received a plantar injection (150 µl) of 0.9% NaCl into their left hind paw. CFA induces inflammation, resulting in a left hind paw that is hypersensitive to mechanical stimulus, while the right hind paw serves as a within-subject baseline for each animal. […]

CD1 or C57BL/6 mice = assay: Acetic acid-induced abdominal writhing assay (visceral pain); settings: for ED50: Mus musculus, equimolar dosing; for Analgesia in acetic acid-induced writhing assay: high dose (100 mg/kg), all experimental cohorts
Description: as §1
In this model of visceral pain, abdominal contraction (writhing), in which contraction of the abdominal muscles and stretching of the hind limbs is induced in mice in response to an ip injection of 0.4% acetic acid at a dose of 10 mL/kg 25 min after drug administration, is assessed. Specifically, the number of writhes is counted for 10 min, beginning 5 min after acetic acid injection. […] CD1 (young male and female) or C57BL/6 (aged male) mice were used. For the abdominal writhing assays, we used n = 35 aged male mice, n = 70 young male mice, and n = 70 young female mice.

[2] = 100 mg/kg PO (cumulative dosing)
[3] = read-out: ED50 von-Frey Assay (Rats), Aged (Male)
[4] = read-out: ED50 von-Frey Assay (Rats), Young (Female)
[5] = read-out: ED50 von-Frey Assay (Rats), Young (Male)
[6] = read-out: ED50 Acetic acid writhing Assay (Mice), Aged (Male)
[7] = read-out: ED50 Acetic acid writhing Assay (Mice), Young (Female)
[8] = read-out: ED50 Acetic acid writhing Assay (Mice), Young (Male)

SMILES	Animals dead in 48 h (liver of CD1 mice)	Formation of the hepatotoxic metabolite NAPQI (serum) [1]	Threshold for paw withdrawal, CFA-injected paw (Sprague–Dawley rats; 32 mg/kg PO)	Threshold for paw withdrawal, CFA-injected left hind paw (Sprague–Dawley rats; 32 mg/kg)	Threshold for paw withdrawal, CFA-injected paw (Sprague–Dawley rats; [2])	Threshold for paw withdrawal, CFA-injected left hind paw (Sprague–Dawley rats; 100 mg/kg)	ED50 (Sprague–Dawley rats; [3])	ED50 (Sprague–Dawley rats; [4])	ED50 (Sprague–Dawley rats; [5])	ED50 (CD1 or C57BL/6 mice; [6])	ED50 (CD1 or C57BL/6 mice; [7])	ED50 (CD1 or C57BL/6 mice; [8])	Analgesia in acetic acid-induced writhing assay (CD1 or C57BL/6 mice)
CCN(CC)C(=O)c1ccccc1S(=O)(=O)NCC(=O)Nc1ccc(O)cc1 [SRP-001, N,N-diethyl-2-[[2-(4-hydroxyanilino)-2-oxo-ethyl]sulfamoyl]benzamide]	none	lack of formation of the toxic quinonimine metabolite NAPQI; also recorded: does not produce the hepatotoxic metabolite; also recorded: lack of production of NAPQI	40 g	32 g	55 g	40 g	454 µmol/kg	121 µmol/kg	190 µmol/kg	22.1 µmol/kg	237 µmol/kg	31.1 µmol/kg	significant analgesia
CC(=O)Nc1ccc(O)cc1 [ApAP, acetaminophen, reference compound]	75%	a NAPQI peak is seen; also recorded: significantly enhanced; also recorded: NAPQI peak appears	34 g		50 g		358 µmol/kg	292 µmol/kg	574 µmol/kg	71.6 µmol/kg	661 µmol/kg	75.8 µmol/kg	significant analgesia
